Assay results as given in publication PMC2706530 (Hypertension, 2009).

How the values were obtained:
Type in all cases: biochemical
[1] = target: aminopeptidase-A (Rattus norvegicus, UniProt P50123); assay: Effect of APA inhibitor on ANG-I conversion by isolated rat glomeruli; details: 100 μM amastatin, 1 μM ANG-I
[2] = system: ANG-II type 1-receptor; assay: Effect of losartan pre-incubation on ANG-II detection in isolated rat glomeruli; details: pre-incubation with 10 μM losartan, 1 μM ANG-I; data not shown
[3] = target: T1, neprilysin (Rattus norvegicus, UniProt P07861); assay: Effect of NEP inhibitor on ANG-I conversion by isolated rat glomeruli; details: 10 μM thiorphan, 1 μM ANG-I, 15-90 minutes; p < 0.05 vs. untreated; n=7
T1 sequence (P07861 1-750): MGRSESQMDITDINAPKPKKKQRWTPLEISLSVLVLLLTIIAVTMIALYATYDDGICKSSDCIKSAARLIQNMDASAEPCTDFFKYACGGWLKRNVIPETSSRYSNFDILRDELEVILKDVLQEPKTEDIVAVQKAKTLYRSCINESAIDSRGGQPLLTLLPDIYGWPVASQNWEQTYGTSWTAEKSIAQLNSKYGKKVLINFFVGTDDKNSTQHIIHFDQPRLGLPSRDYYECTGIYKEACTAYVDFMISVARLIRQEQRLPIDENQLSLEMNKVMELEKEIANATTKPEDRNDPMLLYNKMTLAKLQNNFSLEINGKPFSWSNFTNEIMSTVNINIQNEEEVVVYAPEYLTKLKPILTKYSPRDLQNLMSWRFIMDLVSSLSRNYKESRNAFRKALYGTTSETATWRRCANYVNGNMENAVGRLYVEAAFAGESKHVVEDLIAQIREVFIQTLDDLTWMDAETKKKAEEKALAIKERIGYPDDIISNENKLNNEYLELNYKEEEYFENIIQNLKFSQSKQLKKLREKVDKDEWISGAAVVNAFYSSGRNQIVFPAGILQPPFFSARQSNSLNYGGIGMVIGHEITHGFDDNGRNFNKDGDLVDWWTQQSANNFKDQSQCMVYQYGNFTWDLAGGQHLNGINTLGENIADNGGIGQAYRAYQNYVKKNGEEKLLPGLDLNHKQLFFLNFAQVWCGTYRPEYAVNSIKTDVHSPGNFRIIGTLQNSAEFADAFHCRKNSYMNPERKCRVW

aminopeptidase-A, sequence (P50123 whole entry): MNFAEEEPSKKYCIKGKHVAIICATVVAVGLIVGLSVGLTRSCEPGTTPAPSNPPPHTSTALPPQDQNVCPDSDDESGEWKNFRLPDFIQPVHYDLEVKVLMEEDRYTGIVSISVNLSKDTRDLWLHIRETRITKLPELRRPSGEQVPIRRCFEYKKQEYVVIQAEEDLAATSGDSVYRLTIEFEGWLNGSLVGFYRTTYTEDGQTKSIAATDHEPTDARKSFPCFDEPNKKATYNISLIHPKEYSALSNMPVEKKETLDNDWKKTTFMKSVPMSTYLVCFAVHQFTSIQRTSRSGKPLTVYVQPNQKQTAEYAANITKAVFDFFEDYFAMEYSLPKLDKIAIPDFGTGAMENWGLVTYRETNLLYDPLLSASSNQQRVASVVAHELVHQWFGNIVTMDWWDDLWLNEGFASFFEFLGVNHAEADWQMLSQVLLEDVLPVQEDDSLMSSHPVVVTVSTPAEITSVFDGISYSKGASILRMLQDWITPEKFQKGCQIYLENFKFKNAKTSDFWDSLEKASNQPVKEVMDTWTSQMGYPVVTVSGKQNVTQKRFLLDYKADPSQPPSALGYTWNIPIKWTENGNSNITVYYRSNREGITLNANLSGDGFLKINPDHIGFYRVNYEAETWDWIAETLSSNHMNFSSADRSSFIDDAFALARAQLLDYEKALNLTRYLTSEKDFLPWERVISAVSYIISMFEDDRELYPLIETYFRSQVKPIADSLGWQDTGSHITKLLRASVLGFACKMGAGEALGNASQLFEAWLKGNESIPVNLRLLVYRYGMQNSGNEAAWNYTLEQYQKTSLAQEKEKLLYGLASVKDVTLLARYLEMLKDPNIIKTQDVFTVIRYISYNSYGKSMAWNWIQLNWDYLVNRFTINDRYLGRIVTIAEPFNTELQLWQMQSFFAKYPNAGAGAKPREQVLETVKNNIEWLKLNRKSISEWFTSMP

Question: For CC(C)C[C@@H](N)[C@H](O)C(=O)N[C@H](C(=O)N[C@H](C(=O)N[C@@H](CC(=O)O)C(=O)O)C(C)C)C(C)C [amastatin], which “effect on disappearance of ANG-I (APA inhibition)” value ([1]; 15-90 minutes, p < 0.05 vs. untreated, n=7) is on record?
Answer: The value was “significantly reduced”.

Question: And the “change in ANG-II, amastatin-treated” value ([1]; 60 minutes)?
Answer: The value was “non-significant increase”.

Question: For CCCCc1nc(Cl)c(CO)n1Cc1ccc(-c2ccccc2-c2nn[nH]n2)cc1 [losartan], which “effect on detection of ANG-II” value [2] is on record?
Answer: Its value is “did not enhance the detection of ANG-II”.

Question: Which “effect on disappearance of ANG-I (NEP inhibition)” value [3] does the source give for O=C(O)CNC(=O)C(CS)Cc1ccccc1 (stereo not shown) [thiorphan] here?
Answer: The value was “significantly reduced”.
